Results as given in ChEMBL document CHEMBL1139722, “N',2-diphenylquinoline-4-carbohydrazide based NK3 receptor antagonists” (Bioorg Med Chem Lett, 2006).
One block for each compound: values may come before it. Calls of active or inactive are those of the source.

What was measured:
Neuromedin-K receptor [1] = biological target: T1, Neuromedin-K receptor (Homo sapiens, UniProt P29371); test: Displacement of [125I]neurokinin B from cloned human NK3 receptor expressed in CHO cells; assay type: cell-based
T1 sequence (P29371 whole entry): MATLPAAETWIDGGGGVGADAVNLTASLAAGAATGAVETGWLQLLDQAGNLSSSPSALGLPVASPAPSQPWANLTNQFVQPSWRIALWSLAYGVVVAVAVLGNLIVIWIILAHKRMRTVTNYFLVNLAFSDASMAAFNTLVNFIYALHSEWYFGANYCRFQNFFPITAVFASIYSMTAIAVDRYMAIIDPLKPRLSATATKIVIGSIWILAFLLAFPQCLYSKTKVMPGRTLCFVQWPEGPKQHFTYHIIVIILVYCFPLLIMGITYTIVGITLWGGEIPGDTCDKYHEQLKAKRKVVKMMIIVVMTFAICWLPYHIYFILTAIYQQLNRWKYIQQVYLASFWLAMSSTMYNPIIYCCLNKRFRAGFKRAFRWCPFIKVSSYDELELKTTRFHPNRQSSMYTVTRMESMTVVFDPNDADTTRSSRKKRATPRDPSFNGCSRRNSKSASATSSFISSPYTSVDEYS

PXR (NR1I2) = biological target: T2, PXR (NR1I2) (Homo sapiens, UniProt O75469); test: Increase in human PXR activation expressed in CHO cells relative to rifampicin; assay type: cell-based; conditions: CHO cells expressing human PXR, read-out: Activity
T2 sequence (O75469 whole entry): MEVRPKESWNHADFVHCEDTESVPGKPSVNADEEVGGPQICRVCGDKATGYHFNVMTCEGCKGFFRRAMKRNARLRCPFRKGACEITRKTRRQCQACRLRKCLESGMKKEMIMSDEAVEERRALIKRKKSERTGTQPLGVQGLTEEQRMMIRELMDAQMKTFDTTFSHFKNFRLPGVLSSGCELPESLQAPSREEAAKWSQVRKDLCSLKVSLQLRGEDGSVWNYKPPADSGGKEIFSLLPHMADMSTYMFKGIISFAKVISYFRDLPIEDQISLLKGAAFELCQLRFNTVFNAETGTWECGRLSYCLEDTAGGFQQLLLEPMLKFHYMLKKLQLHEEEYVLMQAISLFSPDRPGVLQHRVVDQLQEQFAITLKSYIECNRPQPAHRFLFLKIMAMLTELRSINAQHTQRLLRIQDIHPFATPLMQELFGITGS

[2] = Metabolic stability in rat liver microsomes after 15 mins; assay type: ADME, Microsome; conditions: read-out: Stability
Gerbil, jird [3] = test: Plasma concentration in gerbil at 10 mg/kg, po; assay type: ADME, organism-based; set-up: dose 10 mg/kg, route oral; conditions: meriones, in vivo
[4] = biological target: T3, Neuromedin-K receptor (Homo sapiens) (UniProt P29371); test: Displacement of [125I]neurokinin B from cloned human NK3 receptor expressed in CHO cells at 1 uM; assay type: cell-based; conditions: filed as antagonist
T3 sequence (whole entry): T1 sequence (P29371 whole entry)

[5] = biological target: T3, Neuromedin-K receptor (Homo sapiens); test: Activity at human NK3 receptor assessed as inhibition of eledoisin-induced inositol phosphate generation in CHO cells; assay type: functional, cell-based
Cytochrome P450 2D6 = Cytochrome P450 2D6 (Homo sapiens, UniProt P10635); test: Inhibition of CYP2D6 in human liver microsomes; assay type: ADME, Microsome
Sequence of Cytochrome P450 2D6 (P10635 whole entry): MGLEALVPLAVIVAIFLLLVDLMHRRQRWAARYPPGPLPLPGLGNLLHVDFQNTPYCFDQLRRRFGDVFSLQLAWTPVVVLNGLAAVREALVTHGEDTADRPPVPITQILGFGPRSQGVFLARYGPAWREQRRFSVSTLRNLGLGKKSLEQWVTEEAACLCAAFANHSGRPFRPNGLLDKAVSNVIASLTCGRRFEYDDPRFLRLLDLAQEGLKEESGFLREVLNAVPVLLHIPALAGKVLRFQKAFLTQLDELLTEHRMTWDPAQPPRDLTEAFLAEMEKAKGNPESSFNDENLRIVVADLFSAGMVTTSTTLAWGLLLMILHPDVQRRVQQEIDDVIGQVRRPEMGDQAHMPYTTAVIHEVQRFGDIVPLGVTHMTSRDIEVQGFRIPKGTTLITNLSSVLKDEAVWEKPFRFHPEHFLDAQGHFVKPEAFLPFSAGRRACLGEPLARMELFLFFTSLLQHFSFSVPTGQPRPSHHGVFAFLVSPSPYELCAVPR

Cytochrome P450 2C9 = Cytochrome P450 2C9 (Homo sapiens, UniProt P11712); test: Inhibition of CYP2C9 in human liver microsomes; assay type: ADME, Microsome
Sequence of Cytochrome P450 2C9 (P11712 whole entry): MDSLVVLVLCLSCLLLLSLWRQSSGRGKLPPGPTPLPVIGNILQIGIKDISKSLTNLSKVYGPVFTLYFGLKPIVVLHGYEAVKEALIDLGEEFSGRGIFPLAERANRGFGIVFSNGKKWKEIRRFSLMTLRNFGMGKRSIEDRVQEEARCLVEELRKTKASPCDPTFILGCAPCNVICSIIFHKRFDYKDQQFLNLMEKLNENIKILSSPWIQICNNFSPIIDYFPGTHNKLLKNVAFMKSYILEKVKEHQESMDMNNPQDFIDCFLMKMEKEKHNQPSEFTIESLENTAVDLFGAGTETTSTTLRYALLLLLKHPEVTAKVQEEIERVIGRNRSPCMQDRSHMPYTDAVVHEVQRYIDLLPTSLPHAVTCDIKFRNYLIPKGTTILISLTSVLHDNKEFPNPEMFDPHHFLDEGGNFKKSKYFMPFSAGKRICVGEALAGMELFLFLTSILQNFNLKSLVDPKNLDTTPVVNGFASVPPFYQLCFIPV

Gerbil, jird [6] = test: Plasma concentration in gerbil at 30 mg/kg, po; assay type: ADME, organism-based; set-up: dose 30 mg/kg, route oral; conditions: meriones, in vivo
Substance-K receptor = biological target: T4, Substance-K receptor (Homo sapiens, UniProt P21452); test: Inhibition of human NK2 receptor
T4 sequence (P21452 whole entry): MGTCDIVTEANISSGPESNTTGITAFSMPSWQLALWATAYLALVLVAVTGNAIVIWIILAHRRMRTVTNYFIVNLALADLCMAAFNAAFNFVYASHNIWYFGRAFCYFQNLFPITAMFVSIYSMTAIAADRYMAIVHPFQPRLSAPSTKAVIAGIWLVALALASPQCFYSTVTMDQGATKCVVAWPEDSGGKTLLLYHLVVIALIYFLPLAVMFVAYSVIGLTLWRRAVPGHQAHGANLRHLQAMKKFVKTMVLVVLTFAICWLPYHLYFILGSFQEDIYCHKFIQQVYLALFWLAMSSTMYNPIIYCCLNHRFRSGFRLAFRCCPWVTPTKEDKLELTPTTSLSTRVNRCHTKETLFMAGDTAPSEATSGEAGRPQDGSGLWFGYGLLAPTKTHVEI

[7] = biological target: Voltage-gated inwardly rectifying potassium channel KCNH2 (Homo sapiens, UniProt Q12809); test: Inhibition of hERG; assay type: toxicity
Sequence of Voltage-gated inwardly rectifying potassium channel KCNH2 (Q12809 whole entry): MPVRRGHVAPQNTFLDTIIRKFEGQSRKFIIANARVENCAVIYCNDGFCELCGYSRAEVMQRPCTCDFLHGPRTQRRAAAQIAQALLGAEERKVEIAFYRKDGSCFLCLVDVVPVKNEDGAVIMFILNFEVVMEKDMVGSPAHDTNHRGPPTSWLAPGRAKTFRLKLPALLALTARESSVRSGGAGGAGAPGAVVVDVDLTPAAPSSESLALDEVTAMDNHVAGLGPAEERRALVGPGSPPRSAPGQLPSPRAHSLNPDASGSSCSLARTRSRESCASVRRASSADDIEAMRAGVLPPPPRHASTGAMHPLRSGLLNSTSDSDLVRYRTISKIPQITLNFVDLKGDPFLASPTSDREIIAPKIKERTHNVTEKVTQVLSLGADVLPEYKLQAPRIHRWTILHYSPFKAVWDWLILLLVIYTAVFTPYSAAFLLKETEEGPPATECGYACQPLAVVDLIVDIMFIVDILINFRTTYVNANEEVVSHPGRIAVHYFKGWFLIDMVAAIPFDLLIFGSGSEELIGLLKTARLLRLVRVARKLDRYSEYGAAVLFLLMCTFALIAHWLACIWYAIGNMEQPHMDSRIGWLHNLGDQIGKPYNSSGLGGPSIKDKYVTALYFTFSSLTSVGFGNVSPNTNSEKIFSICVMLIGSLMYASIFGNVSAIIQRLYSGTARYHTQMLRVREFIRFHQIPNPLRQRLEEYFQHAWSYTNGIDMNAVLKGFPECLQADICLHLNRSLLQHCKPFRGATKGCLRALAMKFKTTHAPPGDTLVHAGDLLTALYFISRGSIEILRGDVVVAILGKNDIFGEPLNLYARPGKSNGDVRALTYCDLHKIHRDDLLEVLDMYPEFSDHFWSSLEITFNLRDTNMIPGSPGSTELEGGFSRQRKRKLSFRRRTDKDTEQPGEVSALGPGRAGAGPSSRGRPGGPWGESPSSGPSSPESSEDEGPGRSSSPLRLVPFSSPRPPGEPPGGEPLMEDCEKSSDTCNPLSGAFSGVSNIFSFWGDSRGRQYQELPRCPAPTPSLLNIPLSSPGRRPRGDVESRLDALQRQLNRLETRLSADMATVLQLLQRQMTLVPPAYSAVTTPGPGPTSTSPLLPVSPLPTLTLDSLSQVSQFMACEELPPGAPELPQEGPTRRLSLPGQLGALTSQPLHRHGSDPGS

[8] = biological target: T3, Neuromedin-K receptor (Homo sapiens); test: Activity at human NK3 receptor assessed as stimulation of inositol phosphate generation in CHO cells up to 10 uM; assay type: functional, cell-based
[9] = Half life in dog; assay type: ADME, organism-based, Canis lupus familiaris; conditions: in vivo
[10] = biological target: T3, Neuromedin-K receptor (Homo sapiens); test: Activity at human NK3 receptor assessed as stimulation of calcium mobilization in CHO cells up to 10 uM; assay type: functional, cell-based
[11] = Oral bioavailability in dog; assay type: ADME, organism-based, Canis lupus familiaris; conditions: in vivo
[12] = Half life in rat; assay type: ADME, organism-based; conditions: in vivo
Hepatocyte = test: Induction of CYP3A4 in human hepatocytes at 20 uM relative to rifampicin; assay type: functional, cell-based
Escherichia coli [13] = test: Effect on Escherichia coli mutation in presence of liver microsomal enzymes by Ames assay; assay type: functional, organism-based
Salmonella typhimurium [14] = test: Effect on Salmonella Typhimurium mutation in presence of liver microsomal enzymes by Ames assay; assay type: functional, organism-based; conditions: Salmonella enterica subsp. enterica serovar Typhimurium
Salmonella typhimurium [15] = test: Effect on Salmonella Typhimurium mutation in absence of liver microsomal enzymes by Ames assay; assay type: functional, organism-based; conditions: Salmonella enterica subsp. enterica serovar Typhimurium
[16] = Oral bioavailability in rat; assay type: ADME, organism-based; conditions: in vivo
Neuromedin-K receptor [17] = biological target: T5, Neuromedin-K receptor (Rattus norvegicus, UniProt P16177); test: Binding affinity to rat NK3 receptor
T5 sequence (P16177 whole entry): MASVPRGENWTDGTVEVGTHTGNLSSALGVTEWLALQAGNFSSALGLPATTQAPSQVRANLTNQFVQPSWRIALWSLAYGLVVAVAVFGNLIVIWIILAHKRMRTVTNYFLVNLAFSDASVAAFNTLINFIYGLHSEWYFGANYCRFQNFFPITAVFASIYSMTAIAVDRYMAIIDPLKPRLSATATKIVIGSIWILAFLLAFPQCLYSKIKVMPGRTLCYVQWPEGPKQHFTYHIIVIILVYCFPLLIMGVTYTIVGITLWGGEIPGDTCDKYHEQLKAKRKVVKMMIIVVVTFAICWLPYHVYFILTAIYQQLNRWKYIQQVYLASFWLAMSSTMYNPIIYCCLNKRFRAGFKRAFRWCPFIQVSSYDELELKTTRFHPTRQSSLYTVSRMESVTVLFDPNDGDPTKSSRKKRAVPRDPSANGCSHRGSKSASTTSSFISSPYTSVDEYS

Cytochrome P450 3A4 = Cytochrome P450 3A4 (Homo sapiens, UniProt P08684); test: Inhibition of CYP3A4 in human liver microsomes; assay type: ADME, Microsome
Sequence of Cytochrome P450 3A4 (P08684 whole entry): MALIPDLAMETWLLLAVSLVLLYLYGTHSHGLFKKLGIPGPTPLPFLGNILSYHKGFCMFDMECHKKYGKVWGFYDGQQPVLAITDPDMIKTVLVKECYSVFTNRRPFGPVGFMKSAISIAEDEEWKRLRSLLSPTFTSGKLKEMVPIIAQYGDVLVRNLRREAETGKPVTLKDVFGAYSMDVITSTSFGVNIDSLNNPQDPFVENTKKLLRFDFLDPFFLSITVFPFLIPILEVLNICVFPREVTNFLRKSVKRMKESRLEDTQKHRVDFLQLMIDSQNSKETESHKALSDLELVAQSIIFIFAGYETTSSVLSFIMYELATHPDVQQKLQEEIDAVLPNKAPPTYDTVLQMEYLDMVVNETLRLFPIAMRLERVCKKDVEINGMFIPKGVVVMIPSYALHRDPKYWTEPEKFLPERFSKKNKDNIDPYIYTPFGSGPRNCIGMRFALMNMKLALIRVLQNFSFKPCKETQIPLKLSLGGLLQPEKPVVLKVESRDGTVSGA

Escherichia coli [18] = test: Effect on Escherichia coli mutation in absence of liver microsomal enzymes by Ames assay; assay type: functional, organism-based
Substance-P receptor = Substance-P receptor (Homo sapiens, UniProt P25103); test: Inhibition of human NK1 receptor
Sequence of Substance-P receptor (P25103 whole entry): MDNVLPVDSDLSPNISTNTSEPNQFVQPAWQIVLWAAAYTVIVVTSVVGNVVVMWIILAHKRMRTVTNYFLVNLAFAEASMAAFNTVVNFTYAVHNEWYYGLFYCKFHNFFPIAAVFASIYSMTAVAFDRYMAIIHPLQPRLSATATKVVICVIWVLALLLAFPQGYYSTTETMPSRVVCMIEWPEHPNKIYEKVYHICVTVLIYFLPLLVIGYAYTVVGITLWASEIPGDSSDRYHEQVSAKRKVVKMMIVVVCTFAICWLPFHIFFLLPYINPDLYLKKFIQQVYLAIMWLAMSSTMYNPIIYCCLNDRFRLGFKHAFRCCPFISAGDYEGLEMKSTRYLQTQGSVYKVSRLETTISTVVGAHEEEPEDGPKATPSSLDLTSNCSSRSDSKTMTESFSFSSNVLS

Gerbil, jird [19] = test: Plasma concentration in gerbil at 75 mg/kg, po; assay type: ADME, organism-based; set-up: dose 75 mg/kg, route oral; conditions: meriones, in vivo

Structure (SMILES): COC(=O)N(NC(=O)c1cc(-c2ccccc2)nc2ccccc12)c1ccccc1
IC50 (Neuromedin-K receptor [1]): 91 nM (antagonist) | Emax (PXR (NR1I2)): 44%

Structure (SMILES): COc1c(-c2ccccc2)nc2ccccc2c1C(=O)NNc1ccccc1
IC50 (Neuromedin-K receptor [1]): 32 nM (antagonist)

Structure (SMILES): COC(=O)N(NC(=O)c1c(N)c(-c2ccccc2)nc2ccccc12)c1ccccc1
IC50 (Neuromedin-K receptor [1]): 10 nM (antagonist) | Emax (PXR (NR1I2)): 64%

Structure (SMILES): COC(=O)N(NC(=O)c1c(OC)c(-c2ccccc2)nc2c(C#N)cccc12)c1ccccc1
inhibition [4]: 35% | Emax (PXR (NR1I2)): 87%

Structure (SMILES): COC(=O)N(NC(=O)c1c(OC)c(-c2ccccc2)nc2ccc(F)cc12)c1ccccc1
IC50 (Neuromedin-K receptor [1]): 38 nM (antagonist) | Emax (PXR (NR1I2)): 62%

Structure (SMILES): COC(=O)N(NC(=O)c1c(OC)c(-c2ccccc2)nc2cccc(F)c12)c1ccccc1
IC50 (Neuromedin-K receptor [1]): 11 nM (antagonist) | Emax (PXR (NR1I2)): 55%

Structure (SMILES): CCC(=O)N(NC(=O)c1c(OC)c(-c2ccccc2)nc2ccccc12)c1ccccc1
IC50 (Neuromedin-K receptor [1]): 22 nM (antagonist)

Structure (SMILES): CCOC(=O)N(NC(=O)c1c(OC)c(-c2ccccc2)nc2ccccc12)c1ccccc1
IC50 (Neuromedin-K receptor [1]): 60 nM (antagonist)

Structure (SMILES): COC(=O)N(NC(=O)c1c(OC)c(-c2ccccc2F)nc2ccccc12)c1ccccc1
IC50 (Neuromedin-K receptor [1]): 110 nM (antagonist)

Structure (SMILES): COC(=O)N(NC(=O)c1c(OC)c(-c2ccccc2)nc2c(Br)cccc12)c1ccccc1
IC50 (Neuromedin-K receptor [1]): 430 nM (antagonist) | Emax (PXR (NR1I2)): 88%

Structure (SMILES): COC(=O)N(NC(=O)c1c(OC)c(-c2ccccc2)nc2ccccc12)c1ccccc1
Activity [5]: Dose-dependent effect | IC50 (Cytochrome P450 2D6): > 30000 nM | IC50 (Cytochrome P450 2C9): > 30000 nM | concentration (Gerbil, jird [6]): 950 nM | IC50 (Substance-K receptor): > 1000 nM | Ki [7]: > 8000 nM | Activity [8]: inactive | half-life [9]: 3 h | Activity [10]: inactive | Emax (PXR (NR1I2)): 49% | remaining at 0.25 h [2]: 21% | bioavailability [11]: 36% | half-life [12]: 4.6 h | Activity (Hepatocyte): Active | Activity (Escherichia coli [13]): inactive | Activity (Salmonella typhimurium [14]): inactive | Activity (Salmonella typhimurium [15]): inactive | bioavailability [16]: 43% | IC50 (Neuromedin-K receptor [17]): 66 nM (antagonist) | IC50 (Cytochrome P450 3A4): 12000 nM | Activity (Escherichia coli [18]): inactive | IC50 (Substance-P receptor): > 1000 nM

Structure (SMILES): COc1c(-c2ccccc2)nc2ccccc2c1C(=O)NN(C(C)=O)c1ccccc1
IC50 (Neuromedin-K receptor [1]): 210 nM (antagonist)

Structure (SMILES): COC(=O)N(NC(=O)c1c(OC)c(-c2ccccc2)nc2c(C(F)(F)F)cccc12)c1ccccc1
inhibition [4]: 27% | Emax (PXR (NR1I2)): 87%

Structure (SMILES): CC[C@H](NC(=O)c1c(O)c(-c2ccccc2)nc2ccccc12)c1ccccc1 [TALNETANT]
Emax (PXR (NR1I2)): 62% | concentration (Gerbil, jird [19]): 3800 nM

The next lines start with the values.

IC50 (Neuromedin-K receptor [1]): 57 nM (antagonist)
Structure (SMILES): COc1c(-c2ccccc2)nc2ccccc2c1C(=O)NN(C)c1ccccc1

IC50 (Neuromedin-K receptor [1]): 22 nM (antagonist) | Emax (PXR (NR1I2)): 69%
Structure (SMILES): COC(=O)N(NC(=O)c1c(OC)c(-c2cccc(F)c2)nc2ccccc12)c1ccccc1

IC50 (Neuromedin-K receptor [1]): 8.4 nM (antagonist) | Emax (PXR (NR1I2)): 56%
Structure (SMILES): COC(=O)N(NC(=O)c1c(C)c(-c2ccccc2)nc2ccccc12)c1ccccc1

IC50 (Neuromedin-K receptor [1]): 39 nM (antagonist)
Structure (SMILES): COC(=O)N(NC(=O)c1c(O)c(-c2ccccc2)nc2ccccc12)c1ccccc1

IC50 (Neuromedin-K receptor [1]): 0.85 nM (antagonist) | Emax (PXR (NR1I2)): 68% | remaining at 0.25 h [2]: 65% | concentration (Gerbil, jird [3]): 40 nM
Structure (SMILES): COc1c(-c2ccccc2)nc2ccccc2c1C(=O)NN(c1ccccc1)c1ccccc1

IC50 (Neuromedin-K receptor [1]): 7.4 nM (antagonist) | Emax (PXR (NR1I2)): 54%
Structure (SMILES): COC(=O)N(NC(=O)c1c(OC)c(-c2ccccc2)nc2ccccc12)c1cccc(F)c1

IC50 (Neuromedin-K receptor [1]): 28 nM (antagonist) | Emax (PXR (NR1I2)): 62%
Structure (SMILES): COC(=O)N(NC(=O)c1c(OC)c(-c2ccccc2)nc2cc(F)ccc12)c1ccccc1

IC50 (Neuromedin-K receptor [1]): 24 nM (antagonist) | Emax (PXR (NR1I2)): 54%
Structure (SMILES): COC(=O)N(NC(=O)c1c(OC)c(-c2ccc(F)cc2)nc2ccccc12)c1ccccc1

IC50 (Neuromedin-K receptor [1]): 53 nM (antagonist)
Structure (SMILES): COC(=O)N(NC(=O)c1c(OC)c(-c2ccccc2)nc2ccccc12)c1ccccc1F

IC50 (Neuromedin-K receptor [1]): 33 nM (antagonist)
Structure (SMILES): COC(=O)N(NC(=O)c1c(OC)c(-c2ccccc2)nc2ccccc12)c1ccc(F)cc1

IC50 (Neuromedin-K receptor [1]): 4.1 nM (antagonist) | Emax (PXR (NR1I2)): 75%
Structure (SMILES): COC(=O)N(NC(=O)c1c(OC)c(-c2ccccc2)nc2c(F)cccc12)c1ccccc1

IC50 (Neuromedin-K receptor [1]): 16 nM (antagonist)
Structure (SMILES): CCN(NC(=O)c1c(OC)c(-c2ccccc2)nc2ccccc12)c1ccccc1

IC50 (Neuromedin-K receptor [1]): 190 nM (antagonist)
Structure (SMILES): COc1c(-c2ccccc2)nc2ccccc2c1C(=O)NN(C(=O)OCC(C)C)c1ccccc1
